Measurements reported in patent US12702691B2, “Extract of an herbal composition as antimicrobial and/or antibiofilm agent” (ALPHANOSOS S.A.S., priority 2016, dated 2026).

Tests used:
B-A17 = assay: Planktonic growth with extract and antibiotic relative to growth without both (Example 14); format: cell-based
Method: (§1) Starting from the herbal composition, the corresponding water extracts (or processed samples) was prepared according to the previously described Method B using 2.06 g of the above herbal composition with 40 mL water with 100 g/L sucrose for water extraction and including the decantation step before filtration. In an independent water extract preparation without sucrose, it has been measured that 2.06 g/40 mL of herbal composition corresponds to 14.5 g/L as deduced from the weight of the lyophilized dry herbal extract.
(§2) In Example 14 we calculate the growth of the bacteria in presence of antibiotic and/or herbal mix relative to the growth in the absence of both antibiotic and herbal mix extract.

B-A21 = assay: as above; format: cell-based
Method: as §1, §2

[1] = M[20C]-576 0 μg/mL, antibiotic 3.91 μg/mL
[2] = M[20C]-576 0 μg/mL, antibiotic 7.81 μg/mL
[3] = M[20C]-576 0 μg/mL, antibiotic 15.63 μg/mL
[4] = M[20C]-576 0 μg/mL, antibiotic 31.25 μg/mL
[5] = M[20C]-576 0 μg/mL, antibiotic 62.50 μg/mL
[6] = M[20C]-576 0 μg/mL, antibiotic 125 μg/mL
[7] = M[20C]-576 0 μg/mL, antibiotic 250 μg/mL
[8] = M[20C]-576 0 μg/mL, antibiotic 500 μg/mL
[9] = M[20C]-576 0 μg/mL, antibiotic 1000 μg/mL
[10] = M[20C]-576 0 μg/mL, antibiotic 2000 μg/mL
[11] = M[20C]-576 0 μg/mL, antibiotic 4000 μg/mL
[12] = M[20C]-576 90.6 μg/mL, antibiotic 3.91 μg/mL
[13] = M[20C]-576 90.6 μg/mL, antibiotic 7.81 μg/mL
[14] = M[20C]-576 90.6 μg/mL, antibiotic 15.63 μg/mL
[15] = M[20C]-576 90.6 μg/mL, antibiotic 31.25 μg/mL
[16] = M[20C]-576 90.6 μg/mL, antibiotic 62.50 μg/mL
[17] = M[20C]-576 90.6 μg/mL, antibiotic 125 μg/mL
[18] = M[20C]-576 90.6 μg/mL, antibiotic 250 μg/mL
[19] = M[20C]-576 90.6 μg/mL, antibiotic 500 μg/mL
[20] = M[20C]-576 90.6 μg/mL, antibiotic 1000 μg/mL
[21] = M[20C]-576 90.6 μg/mL, antibiotic 2000 μg/mL
[22] = M[20C]-576 90.6 μg/mL, antibiotic 4000 μg/mL
[23] = M[20C]-576 181.3 μg/mL, antibiotic 3.91 μg/mL
[24] = M[20C]-576 181.3 μg/mL, antibiotic 7.81 μg/mL
[25] = M[20C]-576 181.3 μg/mL, antibiotic 15.63 μg/mL
[26] = M[20C]-576 181.3 μg/mL, antibiotic 31.25 μg/mL
[27] = M[20C]-576 181.3 μg/mL, antibiotic 62.50 μg/mL
[28] = M[20C]-576 181.3 μg/mL, antibiotic 125 μg/mL
[29] = M[20C]-576 181.3 μg/mL, antibiotic 250 μg/mL
[30] = M[20C]-576 181.3 μg/mL, antibiotic 500 μg/mL
[31] = M[20C]-576 181.3 μg/mL, antibiotic 1000 μg/mL
[32] = M[20C]-576 181.3 μg/mL, antibiotic 2000 μg/mL
[33] = M[20C]-576 181.3 μg/mL, antibiotic 4000 μg/mL

CN[C@H](CC(C)C)C(=O)N[C@H]1C(=O)N[C@@H](CC(N)=O)C(=O)N[C@H]2C(=O)N[C@H]3C(=O)N[C@H](C(=O)N[C@H](C(=O)O)c4cc(O)cc(O)c4-c4cc3ccc4O)[C@H](O)c3ccc(c(Cl)c3)Oc3cc2cc(c3O[C@@H]2O[C@H](CO)[C@@H](O)[C@H](O)[C@H]2O[C@H]2C[C@](C)(N)[C@H](O)[C@H](C)O2)Oc2ccc(cc2Cl)[C@H]1O [Vancomycin]
planktonic growth relative to the growth in the absence of both extract and antibiotic (B-A17; [1]): 135% | planktonic growth relative to the growth in the absence of both extract and antibiotic (B-A17; [2]): 118% | planktonic growth relative to the growth in the absence of both extract and antibiotic (B-A17; [3]): 114% | planktonic growth relative to the growth in the absence of both extract and antibiotic (B-A17; [4]): 117% | planktonic growth relative to the growth in the absence of both extract and antibiotic (B-A17; [5]): 115% | planktonic growth relative to the growth in the absence of both extract and antibiotic (B-A17; [6]): 116% | planktonic growth relative to the growth in the absence of both extract and antibiotic (B-A17; [7]): 118% | planktonic growth relative to the growth in the absence of both extract and antibiotic (B-A17; [8]): 128% | planktonic growth relative to the growth in the absence of both extract and antibiotic (B-A17; [9]): 117% | planktonic growth relative to the growth in the absence of both extract and antibiotic (B-A17; [10]): 0% | planktonic growth relative to the growth in the absence of both extract and antibiotic (B-A17; [11]): 0% | planktonic growth relative to the growth in the absence of both extract and antibiotic (B-A17; [12]): 65% | planktonic growth relative to the growth in the absence of both extract and antibiotic (B-A17; [13]): 66% | planktonic growth relative to the growth in the absence of both extract and antibiotic (B-A17; [14]): 65% | planktonic growth relative to the growth in the absence of both extract and antibiotic (B-A17; [15]): 74% | planktonic growth relative to the growth in the absence of both extract and antibiotic (B-A17; [16]): 70% | planktonic growth relative to the growth in the absence of both extract and antibiotic (B-A17; [17]): 67% | planktonic growth relative to the growth in the absence of both extract and antibiotic (B-A17; [18]): 66% | planktonic growth relative to the growth in the absence of both extract and antibiotic (B-A17; [19]): 63% | planktonic growth relative to the growth in the absence of both extract and antibiotic (B-A17; [20]): 0% | planktonic growth relative to the growth in the absence of both extract and antibiotic (B-A17; [21]): 0% | planktonic growth relative to the growth in the absence of both extract and antibiotic (B-A17; [22]): 0% | planktonic growth relative to the growth in the absence of both extract and antibiotic (B-A17; [23]): 40% | planktonic growth relative to the growth in the absence of both extract and antibiotic (B-A17; [24]): 41% | planktonic growth relative to the growth in the absence of both extract and antibiotic (B-A17; [25]): 53% | planktonic growth relative to the growth in the absence of both extract and antibiotic (B-A17; [26]): 55% | planktonic growth relative to the growth in the absence of both extract and antibiotic (B-A17; [27]): 55% | planktonic growth relative to the growth in the absence of both extract and antibiotic (B-A17; [28]): 54% | planktonic growth relative to the growth in the absence of both extract and antibiotic (B-A17; [29]): 46% | planktonic growth relative to the growth in the absence of both extract and antibiotic (B-A17; [30]): 47% | planktonic growth relative to the growth in the absence of both extract and antibiotic (B-A17; [31]): −3% | planktonic growth relative to the growth in the absence of both extract and antibiotic (B-A17; [32]): −3% | planktonic growth relative to the growth in the absence of both extract and antibiotic (B-A17; [33]): −2% | planktonic growth relative to the growth in the absence of both extract and antibiotic (B-A21; [1]): 118% | planktonic growth relative to the growth in the absence of both extract and antibiotic (B-A21; [2]): 117% | planktonic growth relative to the growth in the absence of both extract and antibiotic (B-A21; [3]): 113% | planktonic growth relative to the growth in the absence of both extract and antibiotic (B-A21; [4]): 117% | planktonic growth relative to the growth in the absence of both extract and antibiotic (B-A21; [5]): 110% | planktonic growth relative to the growth in the absence of both extract and antibiotic (B-A21; [6]): 102% | planktonic growth relative to the growth in the absence of both extract and antibiotic (B-A21; [7]): 102% | planktonic growth relative to the growth in the absence of both extract and antibiotic (B-A21; [8]): 102% | planktonic growth relative to the growth in the absence of both extract and antibiotic (B-A21; [9]): 0% | planktonic growth relative to the growth in the absence of both extract and antibiotic (B-A21; [10]): 0% | planktonic growth relative to the growth in the absence of both extract and antibiotic (B-A21; [11]): 0% | planktonic growth relative to the growth in the absence of both extract and antibiotic (B-A21; [12]): 102% | planktonic growth relative to the growth in the absence of both extract and antibiotic (B-A21; [13]): 82% | planktonic growth relative to the growth in the absence of both extract and antibiotic (B-A21; [14]): 88% | planktonic growth relative to the growth in the absence of both extract and antibiotic (B-A21; [15]): 77% | planktonic growth relative to the growth in the absence of both extract and antibiotic (B-A21; [16]): 76% | planktonic growth relative to the growth in the absence of both extract and antibiotic (B-A21; [17]): 77% | planktonic growth relative to the growth in the absence of both extract and antibiotic (B-A21; [18]): 74% | planktonic growth relative to the growth in the absence of both extract and antibiotic (B-A21; [19]): 67% | planktonic growth relative to the growth in the absence of both extract and antibiotic (B-A21; [20]): 0% | planktonic growth relative to the growth in the absence of both extract and antibiotic (B-A21; [21]): 0% | planktonic growth relative to the growth in the absence of both extract and antibiotic (B-A21; [22]): 0% | planktonic growth relative to the growth in the absence of both extract and antibiotic (B-A21; [23]): 48% | planktonic growth relative to the growth in the absence of both extract and antibiotic (B-A21; [24]): 63% | planktonic growth relative to the growth in the absence of both extract and antibiotic (B-A21; [25]): 57% | planktonic growth relative to the growth in the absence of both extract and antibiotic (B-A21; [26]): 60% | planktonic growth relative to the growth in the absence of both extract and antibiotic (B-A21; [27]): 57% | planktonic growth relative to the growth in the absence of both extract and antibiotic (B-A21; [28]): 41% | planktonic growth relative to the growth in the absence of both extract and antibiotic (B-A21; [29]): 57% | planktonic growth relative to the growth in the absence of both extract and antibiotic (B-A21; [30]): 32% | planktonic growth relative to the growth in the absence of both extract and antibiotic (B-A21; [31]): −2% | planktonic growth relative to the growth in the absence of both extract and antibiotic (B-A21; [32]): −3% | planktonic growth relative to the growth in the absence of both extract and antibiotic (B-A21; [33]): 0%
